Laboratory results from patent publication US20220168319A1, “COMBINED USE OF A-NOR-5alpha ANDROSTANE COMPOUND DRUG AND ANTICANCER DRUG” (SHANGHAI AO QI MEDICAL TECHNOLOGY CO., LTD., priority 2019, published 2022).
Read-outs that look alike come from different tables or passages of the source.

Tests used:
[1] = tested on: pancreatic cancer tissue from patients; test: Efficacy of ACP combined with gemcitabine in pancreatic cancer SuperPDTX mice model; assay type: in vivo, NCG mice; settings: ACP 5 mg/kg p.o. Bid*7, Gemcitabine 30 mg/kg i.p. BIW
Description: (§1) Mice: NCG (NOD-Prkdcem26I12rgem26Nju), Institute of Biomedical Research, Nanjing University
Pancreatic cancer tissue mass were the P2 generation samples of cryopreserved collected from mice after inoculation of the samples from patients with pancreatic cancer, and the samples used in this experiment were P3 generation samples after passage.
(§2) Pancreatic cancer samples were inoculated in the tested mice, and the size of inoculated tissue was 1*1*4mm^3. On the day of inoculation, mice were randomly divided into 4 experimental groups with 6 mice in each group and 4 mice in each cage. The day of grouping was defined as Day 0. The mice were administered according to the experimental protocol for 7 days, and sampled within 24 hours after the end of administration. 24h after the last administration, the experiment was ended, the mice were sacrificed, the tumor was removed, the surrounding connective tissue and muscle tissue were removed under the microscope, and stored in 10% formaldehyde.

[2] = tested on: liver cancer tissue from patients; test: Efficacy of ACP combined with oxaliplatin or sorafenib in liver cancer SuperPDTX mice model; assay type: in vivo, NCG mice; settings: pathology after 7 days; ACP 5 mg/kg p.o. Bid*7, Sorafenib 60 mg/kg p.o. Qd*7, Oxaliplatin 6 mg/kg i.p. Biw*1
Description: as §1
as §2, with “Liver cancer tissue mass were the P1 generation samples of cryopreserved collected from mice after inoculation of the samples from patients with liver cancer, and the samples used in this experiment were P2 generation samples after passage. Liver cancer” for “Pancreatic cancer”, “was 1*1*4 mm^3.” for “was 1*1*4mm^3.”, “into 6” for “into 4”, “administration. 24 h” for “administration. 24h”

[3] = tested on: human liver cancer QGY-7703; assay type: in vivo, nude mice; settings: ip × 7 qd; for Tumor Inhibition rate %: counted by tumor weight
Method: (§3) ACP Administration Group: oral doses were 5, 2.5 and 1.25 mg/kg; oral administration twice a day (with an interval of about 6 hours) for 14 days.
(§4) ACP+Adriamycin or Cyclophosphamide Administration Group: oral doses of ACP were 5, 2.5 and 1.25 mg/kg; oral administration twice a day (with an interval of about 6 hours) for 14 days. Adriamycin lmg/kg or Cyclophosphamide 15 mg/kg were administered intraperitoneally 10 min after the first ACP administration for 7 consecutive days.
(§5) Positive Control Group: Adriamycin 2 mg/kg/time or cyclophosphamide 30 mg/kg/time were administered intraperitoneally once a day for 7 days.
(§6) Negative Control Group: the same volume of solvent as the experimental group was administered, and the administration scheme was the same as that of the experimental group.
(§7) Human tumor cell lines cryopstored in liquid nitrogen were cultured at 37° C. and 5% CO2 after resuscitation. After subculture, the cells in logarithmic growth period were taken and prepared into cell suspension of about (1-2)×10^7 Cell/ml, and inoculated subcutaneously in the right axilla of nude mice 0.2 ml/mice. Under aseptic conditions, tumor tissues of the second or later generations of human tumors liver cancer QGY-7703, pancreatic cancer PANC-1, and lung cancer A549 xenograft models with vigorous growth in vivo, were taken and cut into uniform pieces with the size of 1-2 mm3, and one piece was subcutaneously inoculated in the right axilla of each naked mouse with trocar. The mouse were randomly divided into groups till the tumors inoculated grow to more than 100 mm^3 and administered according to the experimental design scheme.
(§8) After administration, the tumor size was dynamically observed and tested, and the body weight of tumor-bearing mice was weighed. The short diameter (a) and long diameter (b) of the tumor of the naked mouse were measured with calipers every 3 days, and the tumor volume was calculated according to the formula of (a^2×b)/2. The relative tumor volume (RTV) was calculated from the measured and calculated tumor volume, RTV=Vt/V0. Wherein, Vo is the tumor volume at random grouping (i.e., d0), and Vt is the tumor volume at each measurement (i.e., dn). The animals in each group were sacrificed at about three weeks, and the tumor volume was measured, dissected and weighed. The relative tumor proliferation rate and tumor inhibition rate were calculated according to the following formula: […]

human lung cancer A549 = test: Human lung cancer A549 xenograft transplantation model in nude mice; assay type: in vivo; settings: ip × 7 qd; for Tumor Inhibition rate %: counted by tumor weight
Method: as §3, §4, §5, §6, §7, §8

[4] = tested on: human pancreatic cancer PANC-1; test: Human pancreatic cancer PANC-1 xenograft transplantation model in nude mice; assay type: in vivo; settings: ip × 7 qd; for Tumor Inhibition rate %: counted by tumor weight
Method: as §3, §4, §5, §6, §7, §8

Nc1ccn([C@@H]2O[C@H](CO)[C@@H](O)C2(F)F)c(=O)n1 [Gemcitabine, gemcitabine]
Tumor Ki67 Mean ([1]; immunohistochemistry after 7 days): 23.33 ± 5.16
Heterotypic Degree ([1]; pathology after 7 days): Moderate
Proportion of tumor necrosis TCNR Mean ([1]; pathology after 7 days): 0.00 ± 0.00
Tumor component Mean ([1]; pathology after 7 days): 55.00 ± 18.71

O=C1[O][Pt]2([NH][C@@H]3CCCC[C@H]3[NH]2)[O]C1=O [Oxaliplatin, oxaliplatin]
Heterotypic Degree [2]: Severe
Proportion of tumor necrosis TCNR Mean [2]: 16.67 ± 8.76%
Tumor component Mean [2]: 53.33 ± 15.1%

O=P1(N(CCCl)CCCl)NCCCO1 (stereo not shown) [Cyclophosphamide, cyclophosphamide]
Tumor weight (gram) x ± SD ([3]; 15 mg/kg): 1.010 ± 0.19 gram
Tumor Inhibition rate % ([3]; 15 mg/kg): 36.88%
Tumor weight (gram) x ± SD ([3]; 30 mg/kg): 0.197 ± 0.04 gram
Tumor Inhibition rate % ([3]; 30 mg/kg): 87.69%

CNC(=O)c1cc(Oc2ccc(NC(=O)Nc3ccc(Cl)c(C(F)(F)F)c3)cc2)ccn1 [Sorafenib, sorafenib]
Heterotypic Degree [2]: Severe
Proportion of tumor necrosis TCNR Mean [2]: 18.33 ± 7.52%
Tumor component Mean [2]: 58.33 ± 24.8%

COc1cccc2c1C(=O)c1c(O)c3c(c(O)c1C2=O)C[C@@](O)(C(=O)CO)C[C@@H]3O[C@H]1C[C@H](N)[C@H](O)[C@H](C)O1 [adriamycin]
Tumor weight (gram) x ± SD (human lung cancer A549; 1 mg/kg): 0.843 ± 0.08 gram
Tumor Inhibition rate % (human lung cancer A549; 1 mg/kg): 42.26%
Tumor weight (gram) x ± SD (human lung cancer A549; 2 mg/kg): 0.198 ± 0.04 gram
Tumor Inhibition rate % (human lung cancer A549; 2 mg/kg): 86.30%
Tumor weight (gram) x ± SD ([4]; 1 mg/kg): 0.668 ± 0.09 gram
Tumor Inhibition rate % ([4]; 1 mg/kg): 34.51%
Tumor weight (gram) x ± SD ([4]; 2 mg/kg): 0.265 ± 0.06 gram
Tumor Inhibition rate % ([4]; 2 mg/kg): 74.02%
